What was measured:
[1] = tested on: Frankliniella occidentalis (Western Flower Thrips); details: foliar, 168 h
[2] = tested on: Euschistus heros (Neotropical Brown Stink Bug); assay: whole plant or invertebrate; format: in vivo; details: 120 h, application rate of 200 ppm, N2 nymphs on sprayed soybean leaves, 5 days after infestation, read-out: effect in at least one of the two categories (mortality or growth inhibition)
[3] = tested on: Bemisia tabaci (Cotton White Fly); details: in Gossypium hirsutum, foliar, 144 h
[4] = tested on: Myzus persicae (Green Peach Aphid); assay: whole plant or invertebrate; details: foliar, 144 h
[5] = tested on: Diabrotica Balteata (Corn Root Worm); assay: Diabrotica balteata (Corn Root Worm); details: in Zea mays, 96 h, read-out: effect in at least one of the two categories (mortality or growth inhibition)
[6] = tested on: Spodoptera littoralis (Egyptian Cotton Leaf Worm); assay: whole plant or invertebrate; details: in Gossypium barbadense, foliar, 72 h, read-out: control (mortality, anti-feeding effect, growth inhibition)
[7] = tested on: Plutella xylostella (Diamond Back Moth); assay: whole plant or invertebrate; format: in vivo; details: 120 h, application rate of 200 ppm, L2 larvae on treated artificial diet, 5 days after infestation, read-out: effect in at least one of the two categories (mortality or growth inhibition)
[8] = tested on: Myzus persicae (Green Peach Aphid); assay: whole plant or invertebrate; format: in vivo; details: 144 h, test rate of 24 ppm, systemic, roots of infested pea seedlings in test solution, 6 days
[9] = tested on: Tetranychus urticae (Two-Spotted Spider Mite); details: foliar, 192 h

Row | melting point [°C] | SMILES | mortality at 200 ppm [1] [%] | percent effect (mortality or growth inhibition) at 200 ppm [2] [%] | mortality at 200 ppm [3] [%] | mortality at 200 ppm [4] [%] | mortality at 200 ppm [5] [%] | mortality at 200 ppm [6] [%] | percent effect (mortality or growth inhibition) at 200 ppm [7] [%] | mortality at 24 ppm [8] [%] | mortality at 200 ppm [9] [%]
1 |  | CCS(=O)(=O)c1cc(OCC(C)(F)F)cnc1-c1nc2cc(C(F)(F)F)ncc2n1C [Compound P41, 2-[5-(2,2-difluoropropoxy)-3-ethylsulfonyl-2-pyridyl]-3-methyl-6-(trifluoromethyl)imidazo[4,5-c]pyridine] | ≥ 80 | ≥ 80 | ≥ 80 | ≥ 80 | ≥ 80 | ≥ 80 | ≥ 80 | ≥ 80 | 
2 | 94 to 96 | CCS(=O)(=O)c1cc(OC(SC)C(=O)OC)cnc1-c1nc2cc(C(F)(F)F)ncc2n1C (centres unmarked) |  |  |  |  |  |  |  |  | 
3 | 145 to 147 | CCOC(=O)C(C)(C)Oc1cnc(-c2nc3cc(C(F)(F)F)ncc3n2C)c(S(=O)(=O)CC)c1 |  |  |  |  |  |  |  |  | 
4 |  | CCS(=O)(=O)c1cc(OC(C)C)cnc1-c1nc2cc([S+]([O-])C(F)(F)F)ncc2n1C (centres unmarked) [Compound P60, 2-(3-ethylsulfonyl-5-isopropoxy-2-pyridyl)-3-methyl-6-(trifluoromethylsulfinyl)imidazo[4,5-c]pyridine] | ≥ 80 | ≥ 80 | ≥ 80 | ≥ 80 |  | ≥ 80 | ≥ 80 | ≥ 80 | ≥ 80
5 |  | CCS(=O)(=O)c1cc(OC2CCC2)cnc1-c1nc2cc(C(F)(F)F)ncc2n1C [Compound P62, 2-[5-(cyclobutoxy)-3-ethylsulfonyl-2-pyridyl]-3-methyl-6-(trifluoromethyl)imidazo[4,5-c]pyridine] |  | ≥ 80 | ≥ 80 | ≥ 80 | ≥ 80 | ≥ 80 | ≥ 80 |  | ≥ 80
6 | 142 to 144 | CCS(=O)(=O)c1cc(OC(SC)C(N)=O)cnc1-c1nc2cc(C(F)(F)F)ncc2n1C (centres unmarked) |  |  |  |  |  |  |  |  | 
7 |  | CCS(=O)(=O)c1cc(OC(C)(C)C)cnc1-c1nc2cc(C(F)(F)F)ncc2n1C [Compound P5, 2-(5-tert-butoxy-3-ethylsulfonyl-2-pyridyl)-3-methyl-6-(trifluoromethyl)imidazo[4,5-c]pyridine] |  | ≥ 80 | ≥ 80 | ≥ 80 | ≥ 80 | ≥ 80 | ≥ 80 | ≥ 80 | ≥ 80
8 |  | CCS(=O)(=O)c1cc(OC(C)(F)F)cnc1-c1nc2cc(C(F)(F)F)ncc2n1C [Compound P78, 2-[5-(1,1-difluoroethoxy)-3-ethylsulfonyl-2-pyridyl]-3-methyl-6-(trifluoromethyl)imidazo[4,5-c]pyridine] | ≥ 80 | ≥ 80 | ≥ 80 | ≥ 80 | ≥ 80 | ≥ 80 | ≥ 80 | ≥ 80 | 
9 | 138 to 140 | CCS(=O)(=O)c1cc(OC(C)(C)C(C)=O)cnc1-c1nc2cc(C(F)(F)F)ncc2n1C |  |  |  |  |  |  |  |  | 
10 | 204 to 206 | CCS(=O)(=O)c1cc(OC(C#N)SC)cnc1-c1nc2cc(C(F)(F)F)ncc2n1C (centres unmarked) |  |  |  |  |  |  |  |  | 
11 |  | CCS(=O)(=O)c1cc(OC(C)(C)C(F)(F)F)cnc1-c1nc2cc(C(F)(F)F)ncc2n1C [Compound P76, 2-[3-ethylsulfonyl-5-(2,2,2-trifluoro-1,1-dimethyl-ethoxy)-2-pyridyl]-3-methyl-6-(trifluoromethyl)imidazo[4,5-c]pyridine] |  | ≥ 80 | ≥ 80 | ≥ 80 | ≥ 80 | ≥ 80 | ≥ 80 |  | ≥ 80
12 |  | CCS(=O)(=O)c1cc(OC(C)C)cnc1-c1nc2cc(S(=O)(=O)C(F)F)ncc2n1C [Compound P88, 6-(difluoromethylsulfonyl)-2-(3-ethylsulfonyl-5-isopropoxy-2-pyridyl)-3-methyl-imidazo[4,5-c]pyridine] |  | ≥ 80 |  | ≥ 80 |  | ≥ 80 | ≥ 80 | ≥ 80 | ≥ 80
13 |  | CCS(=O)(=O)c1cc(OC(C)C)cnc1-c1nc2cc(SC(F)(F)F)ncc2n1C [Compound P71, 2-(3-ethylsulfonyl-5-isopropoxy-2-pyridyl)-3-methyl-6-(trifluoromethylsulfanyl)imidazo[4,5-c]pyridine] |  | ≥ 80 | ≥ 80 | ≥ 80 | ≥ 80 | ≥ 80 | ≥ 80 |  | ≥ 80
14 |  | CCS(=O)(=O)c1cc(OC(C)C)cnc1-c1nc2cc([S+]([O-])C(F)F)ncc2n1C (centres unmarked) [Compound P87, 6-(difluoromethylsulfinyl)-2-(3-ethylsulfonyl-5-isopropoxy-2-pyridyl)-3-methyl-imidazo[4,5-c]pyridine] |  | ≥ 80 |  | ≥ 80 |  | ≥ 80 | ≥ 80 | ≥ 80 | ≥ 80
15 | 137 to 139 | CCS(=O)(=O)c1cc(OC(F)(F)CBr)ccc1-c1nc2cc(C(F)(F)F)ncc2n1C |  |  |  |  |  |  |  |  | 
16 | 242 to 244 | CCS(=O)(=O)c1cc(OC(C)(C)C(=O)O)cnc1-c1nc2cc(C(F)(F)F)ncc2n1C |  |  |  |  |  |  |  |  | 
17 | 122 to 124 | CCS(=O)(=O)c1cc(OC(C(=O)OC)S(C)(=O)=O)cnc1-c1nc2cc(C(F)(F)F)ncc2n1C (centres unmarked) |  |  |  |  |  |  |  |  | 
18 | 131 to 133 | CCS(=O)(=O)c1cc(OC(C)C(=O)OC)cnc1-c1nc2cc(C(F)(F)F)ncc2n1C (centres unmarked) |  |  |  |  |  |  |  |  | 
19 |  | CCS(=O)(=O)c1cc(OC(C)(C)CC#N)cnc1-c1nc2cc(C(F)(F)F)ncc2n1C [Compound P47, 3-[[5-ethylsulfonyl-6-[3-methyl-6-(trifluoromethyl)imidazo[4,5-c]pyridin-2-yl]-3-pyridyl]oxy]-3-methyl-butanenitrile] |  | ≥ 80 | ≥ 80 | ≥ 80 | ≥ 80 |  | ≥ 80 | ≥ 80 | ≥ 80
20 |  | CCS(=O)(=O)c1cc(OC(C)(C)C#N)ccc1-c1nc2cc(C(F)(F)F)ncc2n1C [Compound P103, 2-[3-ethylsulfonyl-4-[3-methyl-6-(trifluoromethyl)imidazo[4,5-c]pyridin-2-yl]phenoxy]-2-methyl-propanenitrile] | ≥ 80 | ≥ 80 | ≥ 80 | ≥ 80 | ≥ 80 | ≥ 80 | ≥ 80 | ≥ 80 | ≥ 80
21 |  | CCS(=O)(=O)c1cc(OCSC)cnc1-c1nc2cc(C(F)(F)F)ncc2n1C [Compound P10, 2-[3-ethylsulfonyl-5-(methylsulfanylmethoxy)-2-pyridyl]-3-methyl-6-(trifluoromethyl)imidazo[4,5-c]pyridine] | ≥ 80 | ≥ 80 | ≥ 80 | ≥ 80 | ≥ 80 | ≥ 80 |  | ≥ 80 | 
22 | 161 to 163 | CCSc1cc(OC(C)(C)C(=O)O)cnc1-c1nc2cc(C(F)(F)F)ncc2n1C |  |  |  |  |  |  |  |  | 
23 |  | CCS(=O)(=O)c1cc(OCC2(C#N)CC2)cnc1-c1nc2cc(C(F)(F)F)ncc2n1C [Compound P79, 1-[[5-ethylsulfonyl-6-[3-methyl-6-(trifluoromethyl)imidazo[4,5-c]pyridin-2-yl]-3-pyridyl]oxymethyl]cyclopropanecarbonitrile] |  | ≥ 80 | ≥ 80 | ≥ 80 | ≥ 80 | ≥ 80 | ≥ 80 | ≥ 80 | ≥ 80
24 | 142 to 144 | CCS(=O)(=O)c1cc(OC(C)(F)F)ccc1-c1nc2cc(C(F)(F)F)ncc2n1C |  |  |  |  |  |  |  |  | 
25 |  | CCS(=O)(=O)c1cc(OCCSC)ccc1-c1nc2cc(C(F)(F)F)ncc2n1C [Compound P104, 2-[2-ethylsulfonyl-4-(2-methylsulfanylethoxy)phenyl]-3-methyl-6-(trifluoromethyl)imidazo[4,5-c]pyridine] |  | ≥ 80 | ≥ 80 | ≥ 80 | ≥ 80 |  |  | ≥ 80 | ≥ 80

— patent US20200216441A1, “PESTICIDALLY ACTIVE HETEROCYCLIC DERIVATIVES WITH SULFUR CONTAINING SUBSTITUENTS” (SYNGENTA PARTICIPATIONS AG, priority 2017, published 2020)
